The values that follow are results of earlier work, collected in US8883207B2, “Controlled release carvedilol formulation” (TSH Biopharm Corporation Ltd., priority 2009, dated 2014).

Where two headings read alike, the source gives them in different places.

Assay in data set [1]: not given
This is another data set of the same source.

For the compound `COc1ccccc1OCCNCC(O)COc1cccc2[nH]c3ccccc3c12` (racemic) [carvedilol, ((±)1-(carbazol-4-yloxy-3-[[2-(o-methoxyphenoxy)ethyl]-amino]-2-propanol)], the “solubility in gastric fluid” value (gastric fluid (simulated, TS, pH 1.1)) is listed as “low solubility”. The “solubility in intestinal fluid” value (intestinal fluid (simulated, TS without pancreatin, pH 7.5)) was “low solubility”. In addition, the solubility in water entry (water) is reported as “low solubility”. The relative absorption in data set [1] (colon) is listed as 7%; in data set [1] (ileum), 28%; in data set [1] (jejunum) it was 56%.
